Our source for the Average particle diameter and Average width values is patent publication US20100099847A1 (Kyowa Hakko Bio Co., Ltd., priority 2006, published 2010).

For series [1] the following is noted: volume median diameter. On the procedure: This is synonymous with volume median diameter, and it was measured using a laser diffraction and scattering particle diameter analyzer, the LMS-24 SK Laser Micron Sizer (Seishin Enterprise Co. Ltd.) and expressed as a cumulative 50% volume particle diameter.
The conditions of series [2]: width of approximately 300 crystals. The procedure:
The crystals were observed and photographed using a VH-8000 digital microscope (Keyence Corporation). The width of approximately 300 crystals was measured and calculations performed.

Compound `N[C@@H](CCC(=O)N[C@@H](CS)C(=O)NCC(=O)O)C(=O)O` [Commercial product A, glutathione] showed an Average particle diameter in series [1] of 9 μm.
As to `N[C@@H](CCC(=O)N[C@@H](CS)C(=O)NCC(=O)O)C(=O)O` [commercial product B, glutathione], the Average width in series [2] turned out to be 3 μm.
